From patent US20230049350A1, “COMPOUNDS FOR TREATING BRAIN CANCER” (Purdue Pharmaceutical Products L.P., priority 2014, published 2023)

Assays:
[1] = tested on: T98G; experiment: Clonogenic survival with radiotherapy, T98G; format: cell-based; conditions: 2.5 µM or 5 µM, 24 hr, plus radiotherapy, FIG. 10
Protocol: In a first experiment, U251, U87 and T98G cell lines were treated with radiotherapy alone or with radiotherapy and EDO-S101.
For clonogenic survival, exponentially growing cells (70% confluence) were cultured in regular media and treated with EDO-S101 at the appropriate concentrations, or vehicle (final DMSO concentration of 0.1%) for 24 hr. Tumour cell irradiation was done using a 6 MV linear accelerator Elekta Synergy using a clinically calibrated irradiation field of 30 × 30 cm. Two cm thick plates of perspex were positioned above and below the cell culture flasks completely filled with medium to compensate for the build-up effect. Non-irradiated controls were handled identically to the irradiated cells with the exception of the radiation exposure. […] Colonies containing more than 50 cells were counted. The plating efficiency (PE) was calculated as the number of colonies observed/the number of cell plated. The surviving fraction was calculated as the number of colonies formed in the treated dishes compared with the number formed in the control. The survival curves were analyzed using SPSS (Chicago, IL) statistical software by means of a fit of the data by a weighted, stratified, linear regression, according to the linear-quadratic formula: S(D)/S(O)=exp-(aD+bD2).

[2] = tested on: twelve tested GBM cell lines; experiment: GBM cell line viability, panel of twelve tested cell lines; format: cell-based; conditions: in combination with 500 nM vorinostat
Protocol: In vitro experiments were devised in which a series of GBM cell lines representative for MGMT negative and MGMT positive tumour cells were used.
Compounds: 1-100 µM EDO-S101, 1-50 µM temozolomide (TMZ), 1-50 µM temozolomide + 500 nM vorinostat, 1-40 µM bendamustine, 1-40 µM bendamustine and 500 nM vorinostat.
Twelve glioblastoma cell lines representing grade III and IV gliomas and with different expression of MGMT, drug and radiotherapy sensitivity and five patient derived glioblastoma stem, cells were used (see above). […] Spheres were counted 5 days after treatment under an inverted microscope at ×4 magnification. A sphere was counted if it had at least 15 cells.
Cells were seeded at a density of 2 × 10^4 cells/ml in 24 well plates. […] Cells trypsinized and resuspended in 1.0 ml of saline were counted using the NucleoCounterTM NC-100 (automated cell counter systems, Chemotec, Cydevang, DK) in order to evaluate cell viability. […] IC50 values were calculated by the GraFit method (Erithacus Software Limited, Staines, UK). Cell viability was measured with the 3-(4,5 dimethylthiazol-2-yl)-2,5-diphenyl tetrazolium bromide (MTT; Sigma-Aldrich) assay.
IC50 and IC20 values for all twelve cell lines against bendamustine and vorinostat were also determined as described above. […]

Row | SMILES | % survival rate (surviving fraction) with radiotherapy versus radiotherapy alone [1] | sensitivity of all cell lines (FIG. 5) [2]
1 | Cn1c(CCCCCCC(=O)NO)nc2cc(N(CCCl)CCCl)ccc21 [EDO-S101] | considerably reduced | –
2 | Cn1c(CCCC(=O)O)nc2cc(N(CCCl)CCCl)ccc21 [bendamustine] | – | highly sensitive except Mz54 and T98G
